Columns and labels:
Rattus norvegicus [1] = conditions: oral
Canidae = conditions: for NOAEL: subchronic, duration: 90 days, Beagle
Rattus norvegicus [2] = tested on: Rattus norvegicus
Rattus norvegicus [3] = conditions: M/F
Rattus norvegicus [4] = conditions: oral; remark: listed apart in the source
Mus musculus = conditions: for LD50: acute
Rattus norvegicus [5] = conditions: subchronic; duration: 42 days; oral; gavage; CD(SD)
Rattus norvegicus [6] = conditions: oral, gavage, M/F, Crl:CD(SD), During lactation periods f1 & f2: increased pup mortality, decreased pup viability & bodyweight, decreased lactation index, increased …
Rattus norvegicus [7] = conditions: developmental, oral, M
Rattus norvegicus [8] = conditions: chronic; duration: 26 weeks; oral; diet; Liver: Altered weight
[9] = subchronic, M/F, liver and kidney pathology
[10] = developmental, M/F, increased retinal folds in weanlings, reduced viability and lactation indices, reduced pup body weight, increased dead pups at birth
[11] = chronic, duration: 6 months, diet, M, increased liver-to-body weight and liver-to-brain weight ratios

`O=C1[O][Sb-]23[O]C(=O)C([O]2)C2[O][Sb-]4([O]C(=O)C([O]4)C1[O]3)[O]C2=O.[K+].[K+]` gave an LOAEL (Rattus norvegicus [1]; chronic, duration: 2 years, drinking water, M/F, Long-Evans, Whole Body Effects) of 0.35 mg/kg-day.
`CC(C)(C)c1cc(Cn2c(=O)n(Cc3cc(C(C)(C)C)c(O)c(C(C)(C)C)c3)c(=O)n(Cc3cc(C(C)(C)C)c(O)c(C(C)(C)C)c3)c2=O)cc(C(C)(C)C)c1O` was tested, and the NOAEL (Canidae; oral, diet) was 370 mg/kg-day, the NOAEL (Canidae; oral, diet, F) was 370 mg/kg-day and the NOAEL (Canidae; oral, diet, M) was 370 mg/kg-day. For the same compound, the LD50 (Rattus norvegicus [2]; acute, dermal) was over 2000 mg/kg, the LD50 (Rattus norvegicus [2]; acute, dermal, Albino rats / Tif: RAI f (SPF)) was over 2000 mg/kg and the LD50 (Rattus norvegicus [2]; acute, oral, gavage, Tif : Raif (SPF), F3 - hybrid of RII 1/ Tif x RII 2/ Tif) was over 5000 mg/kg. For the same compound, the NOAEL (Rattus norvegicus [2]; chronic, duration: 92 days, oral, diet, F, Tif: RAIf (SPF), hybrids of RII/1 x RII/2) was 62.4 mg/kg-day, the NOAEL (Rattus norvegicus [2]; chronic, duration: 92 days, oral, diet, M, Tif: RAIf (SPF), hybrids of RII/1 x RII/2) was 234 mg/kg-day and the NOAEC (Rattus norvegicus [2]; subchronic, duration: 90 days, oral, diet, Albino Rats / Charles River strain) was 960 mg/kg-day.
For `CC(O)CO` (centres undefined) [1,2-Propylene glycol], the LOAEL (Rattus norvegicus [1]; subchronic, duration: 5 weeks, drinking water, M, Wistar, Hematologic) was 5200 mg/kg-day and the LOAEL (Rattus norvegicus [3]; subchronic, duration: 13 weeks, inhalation, nose only, Sprague-Dawley, respiratory) was 159 mg/m3.
Work on `Oc1cc(Cl)c(Cl)cc1Cl` [2,4,5-Trichlorophenol] yielded an LOAEL (Rattus norvegicus [4]; [9]) of 300 mg/kg-day, an NOEL (Rattus norvegicus [4]; [9]) of 100 mg/kg-day and an NOAEL (Rattus norvegicus [1]; chronic, duration: 98 days, diet, M/F, Wistar, Hepatic, Urinary) of 100 mg/kg-day. For the same compound, the NOAEL (Rattus norvegicus [3]; chronic, duration: 98 days, oral, diet, Wistar, hepatic, renal) was 100 mg/kg-day.
With `OCCCl` [2-Chloroethanol] the NOAEL (Rattus norvegicus [1]; chronic, duration: 18 weeks, diet, M/F, FDRL, Whole Body Effects) was 45 mg/kg-day.
`Cc1ccccc1N` [2-Methylaniline] was tested, and the LOAEL (Rattus norvegicus [1]; subchronic, duration: 13 weeks, diet, M, Fischer 344) was 301 mg/kg-day.
For `O=C(c1ccc(Cl)cc1)c1ccc(Cl)cc1` [4,4'-Dichlorobenzophenone], the NOAEL (Rattus norvegicus [1]; subchronic, duration: 90 days, diet, M, Wistar) was 86 mg/kg-day.
`CCCCCCCCCCCCCCCCCC(=O)OC[C@@H](O)[C@H]1OC[C@H](O)[C@H]1O` [Anhydrosorbitol stearate] was tested, and the “NOAEL (% diet)” value (Mus musculus; chronic, duration: 80 weeks, dermal, (TO)) was 0.5, the “NOAEL (% diet)” value (Canidae; chronic, duration: 20 months, dermal, Dog Other) was 5 and the LOAEL (Canidae; chronic, duration: 21 months, oral, diet, Mongrel or Irish terrier) was 485 mg/kg-day. The LD50 (Rattus norvegicus [2]; acute, oral, gavage, Wistar) was over 15900 mg/kg, the “NOAEL (% diet)” value (Rattus norvegicus [2]; reproduction developmental, duration: 2 years, oral, diet) was 5 and the NOEL (Rattus norvegicus [5]) was 1000 mg/kg-day.
`CC[C@H](C)[C@H]1O[C@]2(C=C[C@@H]1C)C[C@@H]1C[C@@H](C/C=C(\C)[C@@H](O[C@H]3C[C@H](OC)[C@@H](O[C@H]4C[C@H](OC)[C@@H](O)[C@H](C)O4)[C@H](C)O3)[C@@H](C)/C=C/C=C3\CO[C@@H]4[C@H](O)C(C)=C[C@@H](C(=O)O1)[C@]34O)O2` [Avermectin B1a] showed an LEL (Rattus norvegicus [4]; [10]) of 0.4 mg/kg-day, an NOEL (Rattus norvegicus [4]; [10]) of 0.12 mg/kg-day and an LOAEL (Rattus norvegicus [6]; developmental) of 0.4 mg/kg-day. It also gave an NOAEL (Rattus norvegicus [6]; developmental) of 0.12 mg/kg-day, an LOAEL (Rattus norvegicus [6]; two-generation) of 0.4 mg/kg-day and an NOAEL (Rattus norvegicus [6]; two-generation) of 0.12 mg/kg-day.
For `CCCCOC(=O)c1ccccc1C(=O)OCc1ccccc1` [Benzyl butyl phthalate], the LOAEL (Rattus norvegicus [4]; [11]) was 470 mg/kg-day, the NOAEL (Rattus norvegicus [4]; [11]) was 159 mg/kg-day and the LD50 (Mus musculus; injection, Intraperitoneal, Swiss-Webster) was 3160 mg/kg. For the same compound, the LD50 (Mus musculus; oral) was 4170 mg/kg, the NOAEL (Mus musculus; short-term, duration: 14 days, oral, diet, B6C3F1) was over 5250 mg/kg-day and the NOAEL (Canidae; oral) was 500 mg/kg-day. The LC50 (Rattus norvegicus [2]; acute, inhalation) was over 6.7 µg/mL, the LD50 (Rattus norvegicus [2]; acute, injection, Intraperitoneal) was 2660 mg/kg and the NOAEL (Rattus norvegicus [2]; chronic, duration: 182 days, oral, diet, Fischer 344) was 470 mg/kg-day. The LOAEL (Rattus norvegicus [2]; chronic, duration: 365 days, oral, diet, F, Fischer 344) was 360 mg/kg-day, the NOAEL (Rattus norvegicus [2]; reproduction developmental, duration: 26 weeks, oral, diet, Fischer 344, generation: F0) was 498 mg/kg-day and the NOAEL (Rattus norvegicus [2]; reproduction developmental, duration: 26 weeks, oral, diet, Fischer 344, generation: F1) was 168 mg/kg-day. For the same compound, the NOAEL (Rattus norvegicus [2]; reproduction developmental, duration: 26 weeks, oral, diet, M, Fischer 344) was 168 mg/kg-day, the NOAEL (Rattus norvegicus [2]; reproduction developmental, duration: 8 days, oral, gavage, F, Wistar) was 500 mg/kg-day and the NOAEL (Rattus norvegicus [2]; reproduction developmental, duration: 8 days, oral, gavage, Wistar, generation: F1) was 500 mg/kg-day. For the same compound, the NOAEL (Rattus norvegicus [2]; reproduction developmental, duration: 10 days, oral, diet, F, Sprague-Dawley) was 420 mg/kg-day, the NOAEL (Rattus norvegicus [2]; reproduction developmental, duration: 10 days, oral, diet, Sprague-Dawley, generation: F1) was 1100 mg/kg-day and the NOAEL (Rattus norvegicus [2]; reproduction developmental, duration: 14 days, oral, diet, Fischer 344, generation: F0) was 750 mg/kg-day. For the same compound, the NOAEL (Rattus norvegicus [2]; reproduction developmental, duration: 20 days, oral, diet, Wistar, generation: F1) was over 1020 mg/kg-day, the NOAEL (Rattus norvegicus [2]; reproduction developmental, duration: 21 days, oral, diet, Fischer 344, generation: F0) was at most 679 mg/kg-day and the NOAEL (Rattus norvegicus [2]; reproduction developmental, oral, diet, F, Wistar) was under 631 mg/kg-day. The NOAEL (Rattus norvegicus [2]; reproduction developmental, oral, diet, Wistar, generation: F0) was 206 mg/kg-day, the NOAEL (Rattus norvegicus [2]; short-term, duration: 14 days, oral, gavage, Sprague-Dawley) was 160 mg/kg-day and the NOAEL (Rattus norvegicus [2]; short-term, duration: 14 days, oral, gavage, Wistar) was 480 mg/kg-day. It also gave an LOAEL (Rattus norvegicus [2]; short-term, duration: 21 days, oral, diet, Fischer 344) of 639 mg/kg-day, an LOAEL (Rattus norvegicus [2]; short-term, duration: 28 days, oral, diet, Fischer 344) of 540 mg/kg-day and an NOAEL (Rattus norvegicus [2]; short-term, duration: 28 days, oral, diet, Sprague-Dawley) of 1000 mg/kg-day. It also gave an NOAEL (Rattus norvegicus [2]; subchronic, duration: 42 days, oral, diet, Sprague-Dawley) of 500 mg/kg-day, an NOAEL (Rattus norvegicus [2]; subchronic, duration: 90 days, inhalation, Sprague-Dawley) of 0.218 mg/L and an NOAEL (Rattus norvegicus [2]; subchronic, duration: 90 days, oral, diet, Sprague-Dawley) of 375 mg/kg-day. It also gave an NOAEL (Rattus norvegicus [2]; subchronic, duration: 90 days, oral, diet, Wistar) of 151 mg/kg-day, an LD50 (Oryctolagus sp.; acute, dermal) of over 10000 mg/kg and an NOAEL (Oryctolagus sp.; reproduction developmental, duration: 12 days, oral, F, New Zealand) of 10 mg/kg-day. The NOEL (Rattus norvegicus [7]; Albino, generation: F1, F1: AGD (units not specified)) was 100 mg/kg-day, the LOEL (Rattus norvegicus [7]; drinking water, Wistar Alpk, generation: F1, F1: AGD (mm)) was 0.18 mg/kg-day and the NOEL (Rattus norvegicus [7]; gavage, Crj:CD, generation: F1, F1: AGD (mm) + F1: AGD (mm/cube root BW)) was 400 mg/kg-day. The LOEL (Rattus norvegicus [7]; gavage, Crj:CD, generation: F2, F2: AGD (mm)) was 100 mg/kg-day and the NOAEL (Rattus norvegicus [8]) was 159 mg/kg-day.

Reference: EPA's ToxValDB 9.5
